These results are taken from patent US20260265525A1, “DEVELOPMENT OF HIGHLY FLUOROGENIC STYRENE PROBES FOR VISUALIZING RNA IN LIVE CELLS” (UNIVERSITY OF SOUTHERN CALIFORNIA, priority 2023, published 2026).

Data set [1] can be described thus: Spectral and photophysical characterization of free dyes in T.E. buffer. Format: physicochemical. As to conditions: for Stokes shift / molar absorptivity: T.E. buffer; for emission wavelength (maximum) / fluorescence quantum yield of free dye / maximum absorbance wavelength: free dye in T.E. buffer. How it is done: After the synthesis of the styrene dyes, their photophysical properties were evaluated. The spectral and photophysical properties (absorption, emission, molar absorptivity (ε), fluorescence quantum yield (ΦDF), and fluorescence enhancement) of probes 1a-1d were measured in DMSO and T.E. buffer (Tris-HCl, 1 mM EDTA, pH=7.5). FIG. 2D provides measurements of the fluorescent enhancement for several of the fluorescent probes.
(§1) Coumarin 6 was used as a reference dye for MPI, 1a, and 1b and Rhodamine 6G was used as a reference for 1c and 1d. Absorption spectra were collected by Shimadzu UV-1800 spectrophotometer. Samples were loaded in plastic disposable cuvette. Emission spectra were obtained by Photon Technology International QuantaMaster model C-60 Fluorimeter in 1×1 cm^2 quartz cuvettes. Fluorescence quantum yields were then calculated according to the method by Lawson-wood, Upstone, and Evans. (58) The torula yeast type IV RNA (Sigma) solution was prepared as a 200 μg/mL solution in T.E. buffer (Tris-HCl, EDTA, pH 7.6, Bioworld) without sonicating to avoid shearing of nucleic acids. All measurements were taken using samples with a final dye concentration of 10 μM.

The next data set concerns torula yeast type IV RNA. The data set can be described thus: Quantum yield and fluorescence enhancement of dyes incubated with RNA. Format: binding. As to conditions: for quantum yield in RNA solution: 10 μM dye, 200 μg/mL RNA in T.E. buffer; for fluorescence enhancement upon binding RNA: ratio of quantum yield of dye in RNA solution over free dye. How it is done:
To determine the fluorescence change of 1a-1d in the presence of RNA, the dyes (10 μM) were incubated with torula yeast type IV RNA in T.E. buffer and measured the spectral and photophysical parameters as described above. Fold-enhancement values were calculated by taking the ratio of the quantum yield of dyes in RNA solution over free dyes.
as §1

The conditions of data set [2]: previously reported; cited from earlier work.
A further data set deals with live HeLa cells. The data set can be described thus: Live-cell and time-resolved confocal imaging. Format: cell-based. As to conditions: for cellular localization of fluorescence signals: live HeLa, 20 μM, 30 min; for time after addition at which nucleoli could be clearly discerned: live cells, dye in medium. As for the experimental part:
HeLa cells were cultured at a density of 7000 cells/well on chambered glass sides and incubated at 37° C. overnight or until fully adherent. After removing the medium and washing with DPBS (Thermo Fisher), the cells were incubated with dyes in PBS (Thermo Fisher) for 30 min at 37° C. with 5% CO2 on the microscope stage and analyzed directly. Fluorescence images were acquired using a confocal microscope (Leica SP8, Leica Microsystems) and analyzed using ImageJ. MPI (20 μM) was excited at 440 nm, SYTO RNASelect (0.1-1 μM, Thermo Fisher) was excited at 490 nm, 1c (10 nM-20 μM) was excited at 550 nm, and 1d (20 μM) was excited at 500 nm.
HeLa cells were cultured on eight-well chambered glass slides (iBidi μ-slides) and incubated overnight at 37° C. with 5% CO2 until totally adherent. Staining solutions for each dye were prepared in serum-free DMEM and kept warm at 37° C. The cells were monitored from 0 to 30 min, where t=0 is the time right before the addition of the dye. Images were acquired at t=0, 0.5, 1, 2, 5, 10, 15, 20, 25, and 30 min for each dye. Fluorescence images were analyzed and quantified with ImageJ.

Another data set concerns PFA-fixed HeLa cells. Put plainly: Fixed-cell imaging. The format is cell-based. The note with it: HeLa fixed with 4% PFA. As for the experimental part:
HeLa cells were cultured on 6-well plates containing glass coverslips and incubated at 37° C. overnight or until fully adherent. After removing the medium and washing with DPBS, the cells were fixed with 4% paraformaldehyde for 10 min at ambient temperature. After fixation, the cells were rinsed with PBS and incubated with dye solutions in PBS for 30 min at ambient temperature. After incubation, the dye solutions were removed and cells were gently washed with PBS three times. The coverslips were mounted onto glass slides, sealed, and analyzed using confocal microscopy.

For data set [3], the system named is RNA mixture (torula yeast RNA type IV). Put plainly: Comparison of fluorogenic response with SYTO RNASelect. The format is binding. The note with it: same RNA species. How it is done:
100 μL of 1 μM 1c and SYTO RNASelect were diluted by 100 μL solutions of RNA mixture to reach final concentrations ranging from 0 to 1000 μg/mL. The resulting mixtures were placed in a 96-well opaque plate. The plate with the mixture was gently shaken for 5 min before being evaluated by a microplate reader (SpectraMax iD5).

The subject of a further data set is rRNA. Put plainly: Native-PAGE gel staining. Also on record: species or system Baker's yeast. As for the experimental part: 1 L of 10×TBE running buffer was prepared by mixing 108 g of Tris Base, 55 g of boric acid, and 40 mL of 0.5 M EDTA (Apex). The combined solution was diluted to 1 L by filtered H2O. 14 mL of 8% Native-PAGE gel was prepared by mixing 0.7 mL of 10×TBE buffer, 0.14 mL of 10% APS buffer (Bio-Rad), and 3.73 mL of 30% acrylamide solution. The mixture was diluted to 14 mL with filtered water. 28 μL of TEMED (Sigma) was added to the mixture. The gel mixture was transferred into the casting frame placed in a precooled gel chamber. An 18-well cast was put on the top and left for polymerization for 15 min on ice. The gel chamber was filled with cold 0.5×TBE running buffer. The gel was pre-run at 150 V for 40 min. The RNA marker mixture was loaded (5 μL micro-RNA marker+0.4 μL low range marker (Bio-Rad) for one well). 5 μL of rRNA sample was loaded to reach rRNA amount as 1 and 10 μg. The RNA marker and rRNA sample loading had four repeats on the same gel. The gel was run at 150 V for 30 min. The cut gels were stained and shaken in 25 mL of 1×SYBR Gold (Thermo Fisher), 2 μM 1c, 20 μM 1c, and 40 μM 1c for 15 min. The gels were de-stained with 0.5×TBE buffer and shaken for 10 min. The buffer was removed, and the gels were imaged using an Amersham Typhoon Biomolecular […].

A further data set deals with DNA from calf thymus. The data set can be described thus: Fluorescence titration of 1c with nucleic acids or BSA. The note with it: fluorogenic response with DNA vs RNA. The format is binding. How it is done: Solutions of torula yeast RNA type IV (RNA mixture) and DNA from calf thymus (Sigma) were prepared and stored at 4° C. overnight. Bovine serum albumin (BSA, Thermo Fisher) and Baker's yeast RNA (rRNA, Sigma) solutions were prepared at 2 h before testing. 100 μL of 1 μM 1c were diluted by corresponding substrates solution reaching concentrations ranging from 0 to 1000 μg/mL of nucleic acids or BSA. The resulting mixtures were placed in a 96-well opaque plate. The plate with the mixture was gently shaken for 5 min before being evaluated by a microplate reader.

Another data set concerns fixed HeLa cells. Put plainly: Ribonuclease (RNase) digest experiment. Format: cell-based. The note with it: fixed cells treated with RNase. How it is done:
HeLa cells were cultured in six-well plates with glass coverslips and incubated at 37° C. overnight to totally adherent. The cells were fixed according to the protocol described above with minor modifications. A solution of 4% paraformaldehyde+0.1% Triton-X was prepared in PBS and used to fix and permeabilize HeLa cells. The cells were incubated with this solution for 20 min at room temperature. After rinsing the cells with PBS, the cells were stained with 1 μM 1c, 1d, or SYTO in PBS for 30 min at room temperature. After removing the staining solution, 0.5 mL of RNase ([…]) and PBS (negative control) was added into each respective well and incubated for 6 h. After incubation, the medium was removed, and the cells were thoroughly washed with PBS three times. The glass coverslips were mounted onto glass slides, sealed, and analyzed using confocal microscopy.

Another data set relates to RNA/spermine condensates. The data set can be described thus: Staining and FLIM imaging of RNA-spermine condensates. Also noted: species or system torula yeast. The note with it: 10 μM. How it is done:
A 1 wt % stock solution of torula yeast RNA type IV was prepared in nuclease-free water and stored in multiple aliquots at −20° C. Final concentrations of RNA ranged from 0.02 to 0.4 wt %. A 1 wt % stock solution of spermine was prepared in deionized water and stored at 4° C. The spermine (Sigma) concentration was fixed at 0.1 wt %. Dye 1c was prepared as 10 mM stock solutions in DMSO. Condensates were prepared in a 5 mM HEPES (pH 7.4, VWR), 1 mM MgCl2 buffer. Stock solutions were added in the following order for the preparation of each sample: deionized water, HEPES, MgCl2, RNA, and spermine. Samples were mixed via gentle pipetting in between the addition of each component. RNA condensates were incubated with 10 μM 1c for 1 min at room temperature. To image the condensates, 20 μL of the incubated sample was added onto a glass coverslip and mounted onto a glass slide. Images were acquired using fluorescence confocal microscopy and FLIM.

With `Cn1c(/C=C/c2cc[n+](C)cc2)cc2ccccc21.[I-]` [Dye 1a], in data set [1], the Stokes shift was 162 nm, the molar absorptivity stood at 20600 M⁻¹ cm⁻¹, the “emission wavelength (maximum)” value worked out at 584 nm and the “fluorescence quantum yield of free dye” value is 0.12%. Moreover, the maximum absorbance wavelength in [1] was 422 nm. Also, in the data set on torula yeast type IV RNA, the “quantum yield in RNA solution” value is reported as 9.9% and the “fluorescence enhancement upon binding RNA” value turned out to be 104 fold.
For the compound `C[n+]1ccc(/C=C/c2c[nH]c3ccccc23)cc1.[I-]` [IN], in [2], the “absorption wavelength (reported)” value is ~ 440 nm and the “emission wavelength (reported)” value is ~ 540 nm.
As for methyl pyridinium indole [MPI], in [2], the “absorption wavelength (reported)” value is ~ 440 nm, the “emission wavelength (reported)” value is listed as ~ 540 nm and the “fluorescence quantum yield (reported)” value is on record as 32%.
In the case of `C[n+]1ccc(/C=C/c2cc3ccccc3[nH]2)cc1.[I-]` [Dye 1b], in data set [1], the Stokes shift stood at 142 nm, the molar absorptivity was found to be 24400 M⁻¹ cm⁻¹, the “emission wavelength (maximum)” value was found to be 568 nm and the “fluorescence quantum yield of free dye” value turned out to be 0.12%. The maximum absorbance wavelength in data set [1] was found to be 410 nm. For the same compound, in the data set on torula yeast type IV RNA, the “quantum yield in RNA solution” value amounted to 3.9% and the “fluorescence enhancement upon binding RNA” value came out at 33 fold.
In the case of `C[n+]1ccc(/C=C/c2ccn3ccccc23)cc1.[I-]` [Dye 1d], in the data set on live HeLa cells, the “cellular localization of fluorescence signals” value was “primarily within the nucleoli and cytoplasm”; the “time after addition at which nucleoli could be clearly discerned” value amounted to 30 s. Moreover, in data set [1], the Stokes shift is listed as 86 nm, the molar absorptivity stood at 34600 M⁻¹ cm⁻¹, the “emission wavelength (maximum)” value is 572 nm and the “fluorescence quantum yield of free dye” value was found to be 0.38%. In data set [1], this compound came in with a maximum absorbance wavelength of 486 nm. Also, the “localization of fluorescence signals in fixed cells” value in the data set on PFA-fixed HeLa cells is “predominantly coming from the nucleoli and cytoplasm”. In the data set on torula yeast type IV RNA, the “quantum yield in RNA solution” value is 50% and the “fluorescence enhancement upon binding RNA” value was 132 fold.
On to `C[n+]1ccc(/C=C/c2ccc3ccccn23)cc1.[I-]` [Dye 1c], for which, in the data set with live HeLa cells, the “lowest concentration used to resolve nucleoli” value is recorded as 10 nM; the “cellular localization of fluorescence signals” value was “primarily within the nucleoli and cytoplasm”; the “time after addition at which nucleoli could be clearly discerned” value worked out at 30 s. Moreover, the “concentration sufficient for visualizing nucleoli (dose-response study)” value in the data set with live HeLa cells (live HeLa cells) is “nanomolar concentrations”. The “fluorogenic response compared with SYTO RNASelect” value in data set [3] is “significantly higher fluorogenic responses than SYTO™ RNASelect”. In addition, in data set [1], the Stokes shift stood at 86 nm, the molar absorptivity stood at 27500 M⁻¹ cm⁻¹, the “emission wavelength (maximum)” value worked out at 596 nm and the “fluorescence quantum yield of free dye” value was determined as 0.10%. For the same compound, in [1], the maximum absorbance wavelength came to 510 nm. Further, in the data set with rRNA, the “sensitivity of gel staining versus SYBR Gold” value is “lower than the commercial standard, SYBR Gold” and the “staining of RNA in PAGE-gels” value is listed as “can stain RNA in PAGE-gels”. Also, the “selectivity for RNA over DNA in vitro” value in the data set with DNA from calf thymus was “moderate selectivity for RNA over DNA”. Moreover, the “localization of fluorescence signals in fixed cells” value in the data set with PFA-fixed HeLa cells was “predominantly coming from the nucleoli and cytoplasm”. The “dependence of nucleolar staining on RNA” value with fixed HeLa cells is recorded as “RNA-dependent”. Further, in the data set on torula yeast type IV RNA, the “quantum yield in RNA solution” value is 49% and the “fluorescence enhancement upon binding RNA” value stood at 490 fold. Besides, in the data set on RNA/spermine condensates, the “partitioning into RNA coacervates” value was “readily partitions into RNA coacervates”.
